Here are results for three compounds from patent US20200254020A1, “Methods and Compositions for Modulating the WNT-Signaling Pathway as Treatments for Inflammatory Diseases” (UNIVERSITY OF SOUTH CAROLINA, priority 2019, published 2020).

Assay type in all cases: cell-based, human
Data set [1] has as its system WNT signaling pathway. The experiment in a line: Blocking WNT signaling with IWR-1 in PMA-activated PBMCs, IFNγ expression. The conditions noted are these: 10 μM IWR-1, 200 nM PMA. The procedure: To investigate whether WNT10B was directly responsible for the upregulation of IFNγ expression, the WNT signaling pathway was blocked using an inhibitor of WNT response-1 (IWR-1, Sigma-Aldrich, St. Louis, Mo., cat # I0161). IWR-1 inhibits WNT signaling by stabilizing AXIN1 and prevents its degradation. AXIN1 is an inhibitor of WNT signaling pathway30. PBMCs (2×106) from healthy controls were cultured overnight (˜18 hours) with 10 LM of IWR-1 in separate wells of a 96-well culture plate in 200 μl complete RPMI medium. The following day, PMA and IWR-1 (in a 10 μl volume) were added to the culture to reach a final concentration of 200 nM PMA and 10 μM IWR-1, respectively. After 6 hours, WNT10B was added to the designated wells. Cells were harvested after 24 and 48 hours of adding WNT10B for total RNA extraction. Culture supernatant was collected for ELISA. ELISA for human IFNγ was performed on culture supernatants. The kit for ELISA was purchased from BioLegend Inc. (CA, USA) and assay was performed following the manufacturer's instructions. Reading for OD was performed in a Victor2TM, 1420 Multilabel Counter (Perkin Elmer, USA) plate reader.

Data set [2] has as its system WNT10B. Description: Micro-RNA mimic assay: transfection of THP1 cells, WNT10B mRNA (qRT-PCR) and protein (western blot). The conditions noted are these: 5 pmol per well mimic. On the procedure: THP1 cells obtained from ATCC were cultured in complete RPMI medium containing 10% FBS, penicillin, and streptomycin, HEPES buffer and 2-mercaptoethanol. The incubation condition was at 37° C. and 5% CO2.
To investigate whether hsa-miR-7113-5p regulated expression of WNT10B, miRNA mimic transfection studies were performed in THP1 cells. Mimics and inhibitors of the miRNA were obtained from Qiagen Inc. and transfected into the cells by employing Lipofectamine RNAiMAX (Invitrogen, ThermoFisher Scientific, USA). One day prior to transfection, 2×10^5 THP1 cells were plated in a 24-well plate in 5001l complete RPMI medium. Mimic, inhibitor, and scrambled oligos were then added at an amount of 5 pmol per well. Cells were cultured for the indicated time after transfection and harvested for RNA and protein isolation. RNA samples were used for qRT-PCR based quantification of mRNAs and miRNAs. Whole-cell lysates were used for western blot analysis of miRNA target protein.
For the Western blot, anti-human-WNT10B was purchased from SIGMA-ALDRICH (cat # PRS4619). […] The total protein was not pre-quantified for loading onto the SDS-PAGE as the protein amount was to be normalized using an internal control. […] Protein bands were detected in a LI-COR blot detection system (Li-Cor Inc, Nebraska, USA).
On the technique in general: In qPCR the cycle at which signal appears reflects the starting amount.

Data set [3] relates to PBMCs. The experiment in a line: WNT10B signaling pathway initiation: rh-WNT10B added to PBMC cultures, proinflammatory gene expression and IFNγ ELISA. The conditions noted are these: for expression of IFNγ at mRNA level / expression of Tbx-21 at mRNA level: vs un-activated PBMCs or PMA activated PBMCs without rh-WNT10B. On the procedure: To analyze whether WNT 10B could influence the expression of proinflammatory genes, WNT signaling was initiated by adding recombinant human (rh)-WNT10B in PBMCs cultures. The PBMCs were isolated from healthy human individuals. Two million cells were cultured in 200 μl medium in a 96-well tissue culture plates as follows: First, the PBMCs were stimulated with Phorbol 12-myristate 13-acetate (PMA) (200 nM) for 6 hours following which, 200 ng/ml rh-WNT10B was added. Then, the PBMCs were harvested after 24 and 48 hours and used for RNA and whole cell lysate (WCL) extraction for further analysis. The culture supernatants were also collected for ELISA to detect IFNγ. The following combinations were used as controls: 1) PBMCs+PMA without WNT10B and 2) PBMCs+WNT10B without PMA.
Before activation of cells and to see whether pre-exposure of cells to WNT10B can influence inflammatory gene expression, WNT10B (200 ng/ml) was first added in all the culture with PBMCs. After 24 hours, PMA (200 nM) was added to activate the cells. The following condition was used for the control: PBMCs+WNT10B without PMA. The cells were then harvested 24 hours after addition of PMA.
To test if chronic presence of WNT 10B alone (without stimulation with PMA) can lead to increased expression of inflammatory genes in the PBMCs, PBMCs (2×10^6 cells/well, in 200 μl, in a 96-well plate) were cultured with rh-WNT10B (200 ng/ml) for 96 hours. Additional rh-WNT10B was added after every 24 hours of culture. Cells were harvested every 24 hours for RNA and whole-cell lysate isolation. Supernatants were also collected for performing ELISA.
ELISA for human IFNγ was performed on culture supernatants. The kit for ELISA was purchased from BioLegend Inc. (CA, USA) and assay was performed following the manufacturer's instructions. Reading for OD was performed in a Victor2TM, 1420 Multilabel Counter (Perkin Elmer, USA) plate reader.
(In general: ELISA stands for enzyme-linked immunosorbent assay.)

Setting [4] is: PMA (200 nM) activated PBMCs, 200 ng/ml rh-WNT10B, 24 hours.
[5] abbreviates: PMA (200 nM) activated PBMCs, 200 ng/ml rh-WNT10B, 48 hours.

As for `O=C(Nc1cccc2cccnc12)c1ccc(N2C(=O)C3C(C2=O)[C@H]2C=C[C@@H]3C2)cc1` (stereo partly shown) [IWR-1, 4-(1,3,3a,4,7,7a-Hexahydro-1,3-dioxo-4,7-methano-2H-isoindol-2-yl)-N-8-quinolinyl-benzamide], the “expression of IFNγ and other proinflammatory genes upon addition of WNT10B” value in data set [1] (WNT10B added after 6 hours) is “did not lead to increased expression”. Also, in data set [1] (compared to cells activated with PMA only), the “expression of IFNγ” value is reported as “significantly downregulated”.

For “mimics of hsa-miR-7113-5p: Mimic of miRNA hsa-miR-7113-5p (UCCAGGGAGACAGUGUGUGAG, SEQ ID NO: 2) obtained from Qiagen Inc. (listed as RNA, chemistry not given here; listed as Homo sapiens)”, in data set [2] (qRT-PCR, compared to scrambled miRNA and miRNA-7113-5p-inhibitor treated groups), the “level of WNT10B mRNA” value was “Significant reduction”. The “level of WNT10B protein” value in data set [2] (western blot of whole-cell lysate after 72 hours, compared to scrambled miRNA and inhibitor groups) is given as “Significant reduction”.

“rh-WNT10B: recombinant human (rh)-WNT10B added to PBMC cultures to initiate WNT signaling”: in data set [3] (PMA (200 nM) activated PBMCs, 200 ng/ml rh-WNT10B, 24 hours, ELISA on culture supernatant), the “protein level of IFNγ” value was “significant increase”. In addition, in data set [3] (setting [4]), the “expression of IFNγ at mRNA level” value was “significant increase” and the “expression of Tbx-21 at mRNA level” value is on record as “significant increase”. In data set [3] (setting [5]), the “expression of IFNγ at mRNA level” value is on record as “significant increase” and the “expression of Tbx-21 at mRNA level” value is listed as “significant increase”. Moreover, the “induction of inflammatory genes, including STAT3, STAT4, or IFNγ” value in data set [3] (rh-WNT10B (200 and 500 ng/ml) alone added to naïve PBMCs, without PMA) is listed as “did not induce any inflammatory genes”.
